Broadly, the pKi is −log10 of the Ki, conventionally taken in molar units. The low end stands for a large Ki, the high end for a small Ki. What is called pIC50 is the IC50 on a negative log10 scale, so that one unit is a factor of ten. Low readings indicate a large IC50, high ones a small IC50.

Assay [1] addresses T1, Lysine-specific demethylase 4C (Homo sapiens, UniProt Q9H3R0).
T1 sequence (Q9H3R0 whole entry): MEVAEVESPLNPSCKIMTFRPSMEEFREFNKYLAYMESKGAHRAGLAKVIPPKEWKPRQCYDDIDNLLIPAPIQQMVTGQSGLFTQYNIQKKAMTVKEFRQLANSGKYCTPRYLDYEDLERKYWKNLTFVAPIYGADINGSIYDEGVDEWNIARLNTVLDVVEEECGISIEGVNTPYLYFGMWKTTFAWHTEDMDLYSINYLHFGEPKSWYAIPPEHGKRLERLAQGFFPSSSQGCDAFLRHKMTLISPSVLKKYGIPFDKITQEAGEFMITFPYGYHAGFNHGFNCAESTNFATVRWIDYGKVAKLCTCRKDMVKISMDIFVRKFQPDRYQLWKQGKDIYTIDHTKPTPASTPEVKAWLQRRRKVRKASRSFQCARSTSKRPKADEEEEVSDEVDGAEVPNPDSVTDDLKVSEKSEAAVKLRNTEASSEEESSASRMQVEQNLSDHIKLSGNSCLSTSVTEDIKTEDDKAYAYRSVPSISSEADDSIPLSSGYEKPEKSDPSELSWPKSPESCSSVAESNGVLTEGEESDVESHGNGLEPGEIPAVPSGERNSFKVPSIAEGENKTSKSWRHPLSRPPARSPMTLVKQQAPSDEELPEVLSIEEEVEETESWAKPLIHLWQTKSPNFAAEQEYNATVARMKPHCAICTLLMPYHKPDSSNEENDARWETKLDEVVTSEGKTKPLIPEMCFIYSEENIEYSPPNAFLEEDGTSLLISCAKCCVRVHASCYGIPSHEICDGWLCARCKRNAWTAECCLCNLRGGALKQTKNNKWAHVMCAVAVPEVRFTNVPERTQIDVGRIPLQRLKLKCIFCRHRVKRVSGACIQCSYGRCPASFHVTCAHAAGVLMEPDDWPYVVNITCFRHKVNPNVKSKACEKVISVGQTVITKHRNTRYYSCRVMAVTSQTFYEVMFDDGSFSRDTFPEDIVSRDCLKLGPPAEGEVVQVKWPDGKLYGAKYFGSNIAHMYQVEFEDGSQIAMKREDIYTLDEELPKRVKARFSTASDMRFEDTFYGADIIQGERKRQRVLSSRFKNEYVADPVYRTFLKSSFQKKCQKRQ

In assay [2] the target is T1, Lysine-specific demethylase 4C. Briefly: Competitive inhibition of N-terminal His6-tagged KDM4C (1 to 352 residues) (unknown origin) expressed in Escherichia coli Rosetta 2(DE3)pLysS using 50 uM ARK(Me3)STGGK peptide/5 uM alpha-ketoglutarate as substrate/cofactor by FDH coupling-based Lineweaver-Burk plot analysis.
Assay [3] concerns the target T2, Lysine-specific demethylase 2A (Homo sapiens, UniProt Q9Y2K7).
T2 sequence (Q9Y2K7 whole entry): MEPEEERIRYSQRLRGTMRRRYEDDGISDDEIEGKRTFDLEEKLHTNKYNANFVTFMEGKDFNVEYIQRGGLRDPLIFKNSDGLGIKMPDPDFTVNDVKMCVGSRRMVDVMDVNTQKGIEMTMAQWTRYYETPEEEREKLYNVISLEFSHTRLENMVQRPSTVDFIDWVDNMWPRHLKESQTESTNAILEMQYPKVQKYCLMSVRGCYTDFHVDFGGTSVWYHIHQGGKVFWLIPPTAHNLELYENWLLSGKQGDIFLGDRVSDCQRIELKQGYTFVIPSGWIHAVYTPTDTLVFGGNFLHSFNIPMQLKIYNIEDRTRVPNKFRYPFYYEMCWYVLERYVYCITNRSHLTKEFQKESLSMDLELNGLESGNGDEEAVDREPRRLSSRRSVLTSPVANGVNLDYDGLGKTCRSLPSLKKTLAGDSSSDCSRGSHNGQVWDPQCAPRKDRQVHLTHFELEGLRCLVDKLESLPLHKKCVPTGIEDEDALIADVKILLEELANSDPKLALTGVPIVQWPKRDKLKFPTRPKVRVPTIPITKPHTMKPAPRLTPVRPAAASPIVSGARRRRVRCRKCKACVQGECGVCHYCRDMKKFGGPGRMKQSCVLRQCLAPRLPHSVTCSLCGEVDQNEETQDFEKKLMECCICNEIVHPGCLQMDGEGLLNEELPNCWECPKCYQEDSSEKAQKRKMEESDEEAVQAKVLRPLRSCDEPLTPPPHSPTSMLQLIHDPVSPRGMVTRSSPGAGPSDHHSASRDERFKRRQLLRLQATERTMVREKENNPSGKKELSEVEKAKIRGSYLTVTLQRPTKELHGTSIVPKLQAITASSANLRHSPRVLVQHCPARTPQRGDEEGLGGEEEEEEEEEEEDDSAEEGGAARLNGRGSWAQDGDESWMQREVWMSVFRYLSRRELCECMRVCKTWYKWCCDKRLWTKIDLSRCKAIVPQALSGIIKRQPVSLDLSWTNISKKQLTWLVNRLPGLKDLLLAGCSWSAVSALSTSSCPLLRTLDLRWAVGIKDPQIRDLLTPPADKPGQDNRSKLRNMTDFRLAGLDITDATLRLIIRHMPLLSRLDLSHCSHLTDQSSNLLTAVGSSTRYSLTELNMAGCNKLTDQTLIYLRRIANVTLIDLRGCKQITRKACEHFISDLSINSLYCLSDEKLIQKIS
Briefly: Inhibition of KDM2A (unknown origin) expressed in Escherichia coli using Biotin H3 (28 to 48 residues) Me2 KDM2A Cognate Ligande/10 uM alpha-ketoglutarate as substrate/cofactor preincubated for 15 mins followed by substrate addition measured after 30 mins by alphascreen assay.

Assay [4] deals with T1, Lysine-specific demethylase 4C. Briefly: Competitive inhibition of N-terminal His6-tagged KDM4C (1 to 352 residues) (unknown origin) expressed in Escherichia coli Rosetta 2(DE3)pLysS using 250 uM ARK(Me3)STGGK peptide/50 uM alpha-ketoglutarate as substrate/cofactor by FDH coupling-based Lineweaver-Burk plot analysis.
For assay [5] the target is unchanged. Briefly: Competitive inhibition of N-terminal His6-tagged KDM4C (1 to 352 residues) (unknown origin) expressed in Escherichia coli Rosetta 2(DE3)pLysS using 50 uM ARK(Me3)STGGK peptide/50 uM alpha-ketoglutarate as substrate/cofactor by FDH coupling-based Lineweaver-Burk plot analysis.

The structures appear in SMILES notation. pIC50, pKi: −log10 of the molar value.

`O=C(O)c1ccnc(-c2cc(NC(=O)c3ccc(O)cc3)ccc2O)c1` had a pKi in assay [1] of 7.36. Moreover, the pIC50 in assay [2] is 5.96; in assay [3], 4.05; in assay [4], 5.26; in assay [5] it was 5.32.

In assay [1], `COCC(=O)Nc1ccc(O)c(-c2cc(C(=O)O)ccn2)c1` gave a pKi of 6.17. Moreover, the pIC50 in assay [2] was 5.48; in assay [3] it was 4.04; in assay [4], 4.83; in assay [5], 4.85.

In assay [3], `CC(=O)Nc1ccc(O)c(-c2cc(C(=O)O)ccn2)c1` showed a pIC50 below 4.00.

`COc1cccc(CC(=O)Nc2ccc(O)c(-c3cc(C(=O)O)ccn3)c2)c1`: the pIC50 in assay [3] is 4.05.

Turning to `Cc1cc(C(=O)Nc2ccc(O)c(-c3cc(C(=O)O)ccn3)c2)no1`, in assay [3], the pIC50 is 4.12.

The record behind these values is ChEMBL document CHEMBL3774347, “Docking and Linking of Fragments To Discover Jumonji Histone Demethylase Inhibitors” (J Med Chem, 2016).
